Assay results from BigSolDB 2.1.

CC(C)(Oc1ccc(CCNC(=O)c2ccc(Cl)cc2)cc1)C(=O)O
Conditions	solubility (mole fraction)
in 2-butanone, 283.14 K	0.00191
in 2-butanone, 288.16 K	0.00227
in 2-butanone, 293.17 K	0.00268
in 2-butanone, 298.16 K	0.00312
in 2-butanone, 303.17 K	0.0037
in 2-butanone, 308.14 K	0.00436
in 2-butanone, 313.16 K	0.00505
in 2-butanone, 318.17 K	0.0058
in 2-butanone, 323.16 K	0.00685
in acetonitrile, 283.24 K	0.000113
in acetonitrile, 288.25 K	0.000153
in acetonitrile, 293.24 K	0.000202
in acetonitrile, 298.25 K	0.000274
in acetonitrile, 303.24 K	0.000355
in acetonitrile, 308.22 K	0.00047
in acetonitrile, 313.22 K	0.000625
in acetonitrile, 318.23 K	0.000809
in acetonitrile, 323.24 K	0.00103
in cyclohexanone, 283.14 K	0.00496
in cyclohexanone, 288.19 K	0.00605
in cyclohexanone, 293.24 K	0.00732
in cyclohexanone, 298.14 K	0.00891
in cyclohexanone, 303.27 K	0.0107
in cyclohexanone, 308.13 K	0.0128
in cyclohexanone, 313.19 K	0.0152
in cyclohexanone, 318.22 K	0.0177
in cyclohexanone, 323.22 K	0.0204
in ethanol, 283.14 K	0.00258
in ethanol, 288.24 K	0.00282
in ethanol, 293.3 K	0.00329
in ethanol, 298.28 K	0.00391
in ethanol, 303.24 K	0.00465
in ethanol, 308.22 K	0.00538
in ethanol, 313.13 K	0.00664
in ethanol, 318.18 K	0.00802
in ethanol, 323.24 K	0.00972
in ethyl acetate, 283.17 K	0.000557
in ethyl acetate, 288.17 K	0.000665
in ethyl acetate, 293.16 K	0.000789
in ethyl acetate, 298.14 K	0.000994
in ethyl acetate, 303.17 K	0.0012
in ethyl acetate, 308.14 K	0.00147
in ethyl acetate, 313.17 K	0.00178
in ethyl acetate, 318.16 K	0.0022
in ethyl acetate, 323.19 K	0.00262
in isobutanol, 282.95 K	0.00115
in isobutanol, 288.04 K	0.0015
in isobutanol, 292.93 K	0.00203
in isobutanol, 298.24 K	0.0026
in isobutanol, 303.2 K	0.00316
in isobutanol, 308.22 K	0.00396
in isobutanol, 313.23 K	0.00489
in isobutanol, 318.17 K	0.00603
in isobutanol, 323.2 K	0.00742
in isopentanol, 283.77 K	0.00149
in isopentanol, 288.56 K	0.00196
in isopentanol, 293.5 K	0.00248
in isopentanol, 298.59 K	0.00304
in isopentanol, 303.13 K	0.00365
in isopentanol, 308.21 K	0.00452
in isopentanol, 313.25 K	0.00555
in isopentanol, 318.17 K	0.00672
in isopentanol, 323.25 K	0.00817
in isopropanol, 283.06 K	0.00146
in isopropanol, 288.14 K	0.00195
in isopropanol, 293.19 K	0.00245
in isopropanol, 298.24 K	0.00302
in isopropanol, 303.21 K	0.00371
in isopropanol, 308.16 K	0.00462
in isopropanol, 313.14 K	0.0057
in isopropanol, 318.22 K	0.00705
in isopropanol, 323.2 K	0.00852
in methanol, 283.12 K	0.00233
in methanol, 288.24 K	0.00248
in methanol, 293.26 K	0.00282
in methanol, 298.17 K	0.00333
in methanol, 303.12 K	0.00408
in methanol, 308.14 K	0.00498
in methanol, 313.13 K	0.00614
in methanol, 318.14 K	0.00754
in methanol, 323.12 K	0.00917
in methyl propionate, 283.19 K	0.000428
in methyl propionate, 288.22 K	0.000532
in methyl propionate, 293.23 K	0.000651
in methyl propionate, 298.17 K	0.000823
in methyl propionate, 303.23 K	0.001
in methyl propionate, 308.14 K	0.0012
in methyl propionate, 313.24 K	0.00148
in methyl propionate, 318.16 K	0.00182
in methyl propionate, 323.18 K	0.00221
in n-butanol, 283.16 K	0.00227
in n-butanol, 288.17 K	0.0027
in n-butanol, 293.14 K	0.00332
in n-butanol, 298.17 K	0.00403
in n-butanol, 303.16 K	0.00493
in n-butanol, 308.14 K	0.00599
in n-butanol, 313.17 K	0.00728
in n-butanol, 318.16 K	0.00881
in n-butanol, 323.17 K	0.0104
in n-butyl acetate, 283.17 K	0.000327
in n-butyl acetate, 288.19 K	0.000401
in n-butyl acetate, 293.2 K	0.000494
in n-butyl acetate, 298.14 K	0.000629
in n-butyl acetate, 303.19 K	0.000779
in n-butyl acetate, 308.16 K	0.000948
in n-butyl acetate, 313.14 K	0.00113
in n-butyl acetate, 318.14 K	0.00138
in n-butyl acetate, 323.2 K	0.00167
in n-pentanol, 283.23 K	0.00233
in n-pentanol, 288.23 K	0.00286
in n-pentanol, 293.29 K	0.00344
in n-pentanol, 298.5 K	0.00408
in n-pentanol, 303.24 K	0.00497
in n-pentanol, 308.02 K	0.006
in n-pentanol, 313.08 K	0.0072
in n-pentanol, 317.95 K	0.00857
in n-pentanol, 322.74 K	0.0103
in n-propanol, 283.13 K	0.00239
in n-propanol, 288.18 K	0.00289
in n-propanol, 293.27 K	0.00351
in n-propanol, 298.53 K	0.00421
in n-propanol, 303.33 K	0.00517
in n-propanol, 308.23 K	0.00617
in n-propanol, 313.37 K	0.00729
in n-propanol, 318.35 K	0.00856
in n-propanol, 323.26 K	0.0104
in n-propyl acetate, 283.16 K	0.000457
in n-propyl acetate, 288.24 K	0.000548
in n-propyl acetate, 293.16 K	0.000665
in n-propyl acetate, 298.18 K	0.000819
in n-propyl acetate, 303.16 K	0.001
in n-propyl acetate, 308.16 K	0.00122
in n-propyl acetate, 313.18 K	0.00146
in n-propyl acetate, 318.16 K	0.00177
in n-propyl acetate, 323.16 K	0.00214
in sec-butanol, 283.16 K	0.0023
in sec-butanol, 288.17 K	0.00294
in sec-butanol, 293.14 K	0.00365
in sec-butanol, 298.16 K	0.00444
in sec-butanol, 303.16 K	0.0053
in sec-butanol, 308.14 K	0.00642
in sec-butanol, 313.17 K	0.00766
in sec-butanol, 318.16 K	0.00914
in sec-butanol, 323.16 K	0.0106
